# Measurements reported in US20190290576A1, “ANTI-MALARIAL PHARMACEUTICAL COMPOSITION” (Protopharma Limited, priority 2007, published 2019).
# Tests used:
# [1] = animals, oral administration; cited from earlier work
# [2] = Storage stability of artemether in solvent systems, impurities by HPLC; assay type: physicochemical; conditions: in contact with water, ethanol, or propellants
# Text: Tables 1 and 2 show impurities present in Artemether API, and artemether in three solvent systems: 20% ethanol+80% propellant; 50% ethanol+50% propellant; 100% ethanol; and a medium chain triglyceride, in this case, the triglyceride sold under the registered trade mark Miglyol® 810. Miglyol® is a medium chain triglyceride containing saturated C8 and C10 fatty acids, typically between 65-80% of caprylic acid (C8:0) and 20-35% of capric acid (C10:0). The propellant used in these test was 1,1,1,2 tetrafluoroethane, sold under the registered trade mark Zephex® 134a. Similar results were obtained for the propellants butane, Zephex® 227 (1,1,1,2,3,3,3 heptafluoropropane) and for a mixture of butane and propane. […] In all other cases, the impurities are at levels that exceed those permitted under the ICH Harmonised Tripartite Guidelines for Impurities in New Drug Products without specific identification or further toxicological examination.
compound,measurement,setting,value
CO[C@H]1O[C@@H]2O[C@@]3(C)CC[C@H]4[C@H](C)CC[C@@H]([C@H]1C)[C@@]24OO3 [artemether],bioavailability,[1],19-35%
same,Stability of artemether in contact with solvents,[2],not stable
